What was measured:
Type in all cases: cell-based
Conditions in all cases: 12.5 μg synthesized peptide per 1 mL cell culture medium, 24 h, 37° C.
FBN1 gene = FBN1 gene expression in human fibroblasts (CCD-966SK), qPCR
Protocol: (§1) In order to confirm the effect of each of the amino acid sequences on gene expression in cells, human fibroblasts (CCD-966SK) and individual peptides were co-cultured, and then, gene expression in the cells was analyzed. 11 types of synthesized peptides were respectively subjected to cell experiments. In addition, the amino acid sequences of 11 types of synthesized peptides were respectively SEQ ID NO: 1, SEQ ID NO: 2, SEQ ID NO: 3, SEQ ID NO: 4, SEQ ID NO: 5, SEQ ID NO: 6, SEQ ID NO: 7, SEQ ID NO: 8, SEQ ID NO: 9, SEQ ID NO: 10 and SEQ ID NO: 11. Hereafter, the sequence numbers SEQ ID NO: 1 to SEQ ID NO: 11 will be referred to as groups.
(§2) Cell gene expression test refers to that after the human fibroblasts (purchased from Food Industry Research and Development Institute) and samples to be tested (such as peptides or compositions) were co-cultured, then, RNA in the cells was collected for analysis. Referring to Table 3, the gene expression test groups were divided into 13 groups. 11 groups therein were peptide experiment groups (Experiment group A to Experiment group K), 1 group was a composition experiment group (Experiment group L), and 1 group was a control group. In addition, each group was co-cultured with 1×10^5 human fibroblasts in a cell culture plate containing 2 mL of cell culture medium (X-VIVO™ 10). Experiment group A to Experiment group K respectively corresponded to 11 groups of peptide experiment groups of 11 types of synthesized peptides (SEQ ID NO: 1, SEQ ID NO: 2, SEQ ID NO: 3, SEQ ID NO: 4, SEQ ID NO: 5, SEQ ID NO: 6, SEQ ID NO: 7, SEQ ID NO: 8, SEQ ID NO: 9, SEQ ID NO: 10 and SEQ ID NO: 11) prepared according to Example III. Experiment group L was a composition experiment group added with the composition. In addition, the composition was identified in Example II to be tilapia fish skin collagen peptide powder (purchased from LAPI, Italy) including […] of peptides (i.e., SEQ ID NO: 1, SEQ ID NO: 2, SEQ ID NO: 3, SEQ ID NO: 4, SEQ ID NO: 5 and SEQ ID NO: 6). No peptide or composition was added in Control group.
(§3) For each group of peptide experiment groups (corresponding to Experiment group A to Experiment group K), according to a proportion of 12.5 μg of synthesized peptide per 1 mL of cell culture medium, the human fibroblasts were cultured for 24 h at 37° C. For the composition experiment group (corresponding to Experiment group L), according to a proportion of 100 mg of composition per 1 mL of cell culture medium, the human fibroblasts were cultured for 24 h. For Control group, no peptide was added, and the human fibroblasts were cultured for 24 h in a pure cell culture medium. In addition, after culture for 24 h, the peptide-containing cell culture medium or the pure culture medium was removed from each group, and cells in each group were washed by a phosphate buffer solution (PBS) so as to remove the residual culture medium. The washed cells were spun down and were subjected to cell lysis by a cell lysis solution (purchased from Geneaid company, Taiwan). Then, RNA in each group of cells was extracted by an RNA extraction kit (purchased from Geneaid company, Taiwan). Next, the extracted RNA was subjected to inverse transcription to obtain cDNA by a cDNA synthesis reagent (purchased from Geneaid company, Taiwan). In addition, the intracellular gene expression was observed by a polymerase chain reaction (PCR) instrument using different primers (as shown in Table 3). In addition, the primers firstly reacted by a green fluorescent dye of SYBR green dye (Applied Biosystem), and quantification of gene expression was performed by a 2-ΔΔCt method. It should be noted that the gene expression in the drawings corresponding to the experiments was shown in relative fold or percentage, wherein standard deviations were calculated by an STDEV formula of Excel software, and statistically significant differences were analyzed by one-tailed student t-test in the Excel software. […]

TIMP1 gene = TIMP1 gene expression in human fibroblasts (CCD-966SK), qPCR
Protocol: as §1, §2
as §3, with “The washed cells were spun down and were subjected to cell lysis by a cell lysis solution (purchased from Geneaid company, Taiwan). Then, RNA in each group of cells was extracted by an RNA extraction kit (purchased from Geneaid company, Taiwan). Next, the extracted RNA was subjected to inverse transcription to obtain cDNA by a cDNA synthesis reagent (purchased from Geneaid company, Taiwan). In addition, the intracellular gene expression was observed by a polymerase chain reaction (PCR) instrument using different primers (as shown in Table 3).” left out

LOX gene = LOX gene expression in human fibroblasts (CCD-966SK), qPCR
Protocol: as §1
as §2, with “No peptide or composition was added in Control group.” left out
(§4) For each group of peptide experiment groups (corresponding to Experiment group A to Experiment group K), according to a proportion of 12.5 μg of synthesized peptide per 1 mL of cell culture medium, the human fibroblasts were cultured for 24 h at 37° C. […] In addition, the primers firstly reacted by a green fluorescent dye of SYBR green dye (Applied Biosystem), and quantification of gene expression was performed by a 2-ΔΔCt method. It should be noted that the gene expression in the drawings corresponding to the experiments was shown in relative fold or percentage, wherein standard deviations were calculated by an STDEV formula of Excel software, and statistically significant differences were analyzed by one-tailed student t-test in the Excel software. […]

MMP2 gene = MMP2 gene expression in human fibroblasts (CCD-966SK), qPCR
Protocol: as §1, with “groups. […]” for “groups.”
as §4

Substance: ALVQNREGP (listed as Oreochromis mossambicus) [SEQ ID NO: 6, synthesized peptide of tilapia skin, Collagen, type VII]
- FBN1 gene expression level, folds of Control group (FBN1 gene): about 5 folds
- TIMP1 gene expression level, folds of Control group (TIMP1 gene): about 3 folds

Substance: AVNGLTLAGGRGLNTGAALT (listed as Oreochromis mossambicus) [SEQ ID NO: 5, synthesized peptide of tilapia skin, Collagen, type VI]
- LOX gene expression level, folds of Control group (LOX gene): about 2.5 folds
- FBN1 gene expression level, folds of Control group (FBN1 gene): about 6 folds

Substance: DQGIRLL (listed as Oreochromis mossambicus) [SEQ ID NO: 10, synthesized peptide of Plectin b]
- FBN1 gene expression level, folds of Control group (FBN1 gene): about 6 folds

Substance: GLPGVQGNI (listed as Oreochromis mossambicus) [SEQ ID NO: 2, synthesized peptide of tilapia skin, Collagen, type IV]
- LOX gene expression level, folds of Control group (LOX gene): about 5.7 folds
- FBN1 gene expression level, folds of Control group (FBN1 gene): about 6 folds
- TIMP1 gene expression level, folds of Control group (TIMP1 gene): about 7.8 folds

Substance: IGIFGQTGPPGE (listed as Oreochromis mossambicus) [SEQ ID NO: 3, synthesized peptide of tilapia skin, Collagen, type IV]
- FBN1 gene expression level, folds of Control group (FBN1 gene): about 3 folds
- MMP2 gene expression inhibition (MMP2 gene): about 60%
- MMP2 gene expression percentage (Control group regarded as 100%) (MMP2 gene): about 40%

Substance: MFGKDVW (listed as Oreochromis mossambicus) [SEQ ID NO: 9, synthesized peptide of N-acetylglucosamine-1-phosphotransferase subunits alpha/beta]
- LOX gene expression level, folds of Control group (LOX gene): about 2.5 folds
- FBN1 gene expression level, folds of Control group (FBN1 gene): about 4 folds
- TIMP1 gene expression level, folds of Control group (TIMP1 gene): about 3 folds

Substance: NGLPGSPGLP GRQGE (NGLPGSPGLPGRQGE; listed as Oreochromis mossambicus) [SEQ ID NO: 7, synthesized peptide of tilapia skin, Collagen, type XII]
- FBN1 gene expression level, folds of Control group (FBN1 gene): about 5 folds

Substance: PGPMGPMGINGA (listed as Oreochromis mossambicus) [SEQ ID NO: 4, synthesized peptide of tilapia skin, Collagen, type V]
- FBN1 gene expression level, folds of Control group (FBN1 gene): about 16 folds

Substance: PGQPGLSGVPGADGKPGLPGP (listed as Oreochromis mossambicus) [SEQ ID NO: 8, synthesized peptide of tilapia skin, Collagen, type XVIII]
- FBN1 gene expression level, folds of Control group (FBN1 gene): about 9 folds
- TIMP1 gene expression level, folds of Control group (TIMP1 gene): about 5 folds

Substance: QRGEPGPNGAV (listed as Oreochromis mossambicus) [SEQ ID NO: 11, synthesized peptide of tilapia skin, Procollagen, type I]
- LOX gene expression level, folds of Control group (LOX gene): about 3 folds
- FBN1 gene expression level, folds of Control group (FBN1 gene): about 5 folds
- TIMP1 gene expression level, folds of Control group (TIMP1 gene): about 5 folds
